Earlier results in patent US20170128401A1, “DIETARY COMPOSITION FOR IMPROVED PERFORMANCE” (priority 2015, published 2017).

Tests used:
[1] = 750 mg dose; 85% VO2 max
[2] = test system: subjects; details: 400 mg of phosphatidylserine
[3] = test system: healthy adults; details: in vivo
[4] = test system: healthy adults; details: in vivo; remark: listed apart in the source

Compound	increase time to exhaustion in anaerobic events [1] [%+/−8]	decrease in wrong answers (test accuracy) [2] [%]	increase in correct answers (test accuracy) [2] [%]	increase speed of calculations [2] [%]	VO2max [3]	carbohydrate absorption [4]
phosphatidylserine	29	39	13	20	–	–
O=C(O[C@@H]1Cc2c(O)cc(O)cc2O[C@@H]1c1cc(O)c(O)c(O)c1)c1cc(O)c(O)c(O)c1 [EGCG, epigallocatechin gallate]	–	–	–	–	increased	significantly decreased
